The record followed here is patent US20080234262A1 (Wyeth, priority 2007, published 2008).

Broadly, the pIC50 is the IC50 on a negative log10 scale, so that one unit is a factor of ten.

One assay concerns the target PI3K (Homo sapiens, UniProt P42336). Nature of the assay: Fluorescence polarization assay for PI3K.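 Also: PI3K kinase reaction on PIP2 with ATP, 30-60 min, product sensed by GST-GRP with red probe in fluorescence polarization (mP), controls without enzyme and at zero time.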 Type of assay: biochemical. A general note: Polarisation of emitted light reports the rotation of a fluorescent probe.
The test system of another assay is prostate line LNCap. The assay can be described thus: In vitro cell culture growth assay (MTS), LNCap. The settings on record: Homo sapiens, 72 h, LNCap cells, three days after drug treatment. Type of assay: cell-based, human.
For another assay, the system named is breast line MDA468. Nature of the assay: In vitro cell culture growth assay (MTS), MDA468. Type of assay: cell-based, human. Particulars: Homo sapiens, 72 h, MDA468 cells, three days after drug treatment. The essentials: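 Cells were plated and, one day later, exposed to inhibitors for three days; viable cell density was then measured by metabolic conversion of MTS dye, read as absorbance at 490 nm. Growth is expressed as percent of vehicle-treated control cells on the same plate.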

pIC50: −log10 of the molar value. Where two headings read alike, the source gives them in different places.

PI3K, sequence (P42336 whole entry): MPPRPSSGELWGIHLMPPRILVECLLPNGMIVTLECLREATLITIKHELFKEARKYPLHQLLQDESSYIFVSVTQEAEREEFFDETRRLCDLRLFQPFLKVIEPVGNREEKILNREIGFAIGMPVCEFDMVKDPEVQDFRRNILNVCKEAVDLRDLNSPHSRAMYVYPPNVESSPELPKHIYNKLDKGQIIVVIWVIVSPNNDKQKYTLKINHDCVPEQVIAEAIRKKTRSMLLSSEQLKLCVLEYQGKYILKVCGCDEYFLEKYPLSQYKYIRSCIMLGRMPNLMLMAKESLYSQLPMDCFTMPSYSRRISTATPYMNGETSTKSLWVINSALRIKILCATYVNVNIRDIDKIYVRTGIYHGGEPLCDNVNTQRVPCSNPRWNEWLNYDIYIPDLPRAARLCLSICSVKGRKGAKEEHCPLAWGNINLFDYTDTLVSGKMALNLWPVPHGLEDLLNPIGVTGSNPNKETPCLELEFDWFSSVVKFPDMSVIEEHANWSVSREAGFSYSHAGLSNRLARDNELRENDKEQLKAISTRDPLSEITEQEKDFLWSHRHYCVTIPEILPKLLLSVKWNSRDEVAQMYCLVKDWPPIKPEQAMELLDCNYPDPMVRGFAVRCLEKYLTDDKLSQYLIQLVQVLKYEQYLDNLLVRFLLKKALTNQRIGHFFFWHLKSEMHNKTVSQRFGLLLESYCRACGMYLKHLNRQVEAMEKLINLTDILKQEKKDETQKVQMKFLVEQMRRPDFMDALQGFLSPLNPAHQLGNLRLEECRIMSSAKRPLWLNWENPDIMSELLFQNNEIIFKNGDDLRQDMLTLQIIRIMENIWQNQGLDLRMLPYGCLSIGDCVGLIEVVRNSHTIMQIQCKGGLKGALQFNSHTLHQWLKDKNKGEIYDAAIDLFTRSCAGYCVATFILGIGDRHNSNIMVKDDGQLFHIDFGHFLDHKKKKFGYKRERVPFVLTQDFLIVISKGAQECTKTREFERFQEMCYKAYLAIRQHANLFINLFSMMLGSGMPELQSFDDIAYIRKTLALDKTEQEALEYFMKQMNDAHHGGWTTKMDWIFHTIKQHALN
PI3K, sequence (P27986 whole entry partner): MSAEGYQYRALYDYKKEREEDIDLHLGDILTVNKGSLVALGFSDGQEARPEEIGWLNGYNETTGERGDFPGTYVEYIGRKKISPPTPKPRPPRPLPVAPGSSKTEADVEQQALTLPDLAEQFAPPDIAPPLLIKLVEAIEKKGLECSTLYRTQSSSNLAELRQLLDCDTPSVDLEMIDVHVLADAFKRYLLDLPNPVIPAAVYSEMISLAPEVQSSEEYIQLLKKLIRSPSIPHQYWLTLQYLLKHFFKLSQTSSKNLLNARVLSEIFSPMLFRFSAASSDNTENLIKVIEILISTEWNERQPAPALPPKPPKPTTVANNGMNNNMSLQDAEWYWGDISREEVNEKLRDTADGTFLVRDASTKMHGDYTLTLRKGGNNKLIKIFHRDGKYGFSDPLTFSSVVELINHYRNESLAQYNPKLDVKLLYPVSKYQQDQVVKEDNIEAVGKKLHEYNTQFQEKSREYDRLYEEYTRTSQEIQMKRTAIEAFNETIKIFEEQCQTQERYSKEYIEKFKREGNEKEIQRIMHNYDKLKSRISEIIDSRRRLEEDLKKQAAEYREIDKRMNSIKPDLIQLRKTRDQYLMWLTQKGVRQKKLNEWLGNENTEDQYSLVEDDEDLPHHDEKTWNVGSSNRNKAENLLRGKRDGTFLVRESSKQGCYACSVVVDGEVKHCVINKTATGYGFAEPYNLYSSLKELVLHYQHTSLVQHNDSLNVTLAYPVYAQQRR

Regarding `c1ccc(CN2CCC(n3ncc4c(N5CCOCC5)nc(-c5cn[nH]c5)nc43)CC2)cc1` [Compound 189], the pIC50 was 6.12 on PI3K (PI3Kα, read-out: PI3Kα IC50); 5.49 in the assay with prostate line LNCap (LNCaP); 5.08 with breast line MDA468.

`c1ccc(CN2CCC(n3ncc4c(N5CCOCC5)nc(-c5ccc6nonc6c5)nc43)CC2)cc1` [Compound 190]: the pIC50 was 5.88 on PI3K (PI3Kα, read-out: PI3Kα IC50); 5.21 in the assay with prostate line LNCap (LNCaP); 5.22 in the assay on breast line MDA468.

As to `c1ccc(CN2CCC(n3ncc4c(N5CCOCC5)nc(-c5ccc(NCCN6CCOCC6)nc5)nc43)CC2)cc1` [Compound 193], the pIC50 on PI3K (PI3Kα, read-out: PI3Kα IC50) is 5.08; in the assay with prostate line LNCap (LNCaP), 5.00; in the assay on breast line MDA468, 4.92.

As to `C=CC(=O)N1CCC(n2ncc3c(N4CCOCC4)nc(-c4ccc5[nH]ccc5c4)nc32)CC1` [Compound 194], the pIC50 was 5.97 on PI3K (PI3Kα, read-out: PI3Kα IC50); 6.02 in the assay on prostate line LNCap (LNCaP); 5.52 with breast line MDA468.

For `O=C(c1ccc[n+]([O-])c1)N1CCC(n2ncc3c(N4CCOCC4)nc(-c4ccc5[nH]ccc5c4)nc32)CC1` [Compound 197], the pIC50 at PI3K (PI3Kα, read-out: PI3Kα IC50) is 5.51; with prostate line LNCap (LNCaP) it was 5.60; in the assay on breast line MDA468, 5.42.

Consider `O=C(c1ccc(F)nc1)N1CCC(n2ncc3c(N4CCOCC4)nc(-c4ccc5[nH]ccc5c4)nc32)CC1` [Compound 201], for which the pIC50 was 5.69 at PI3K (PI3Kα, read-out: PI3Kα IC50); 6.13 with prostate line LNCap (LNCaP); 5.52 with breast line MDA468.

In the case of `O=C(c1ccc(Br)nc1)N1CCC(n2ncc3c(N4CCOCC4)nc(-c4ccc5[nH]ccc5c4)nc32)CC1` [Compound 203], the pIC50 on PI3K (PI3Kα, read-out: PI3Kα IC50) is 5.94; in the assay on prostate line LNCap (LNCaP), 5.98; in the assay on breast line MDA468 it was 5.52.

On to `CCOC(=O)Nc1ccc(-c2nc(N3CCOCC3)c3cnn(C4CCN(Cc5ccccc5)CC4)c3n2)cc1` [Compound 207, ethyl {4-[1-(1-benzylpiperidin-4-yl)-4-morpholin-4-yl-1H-pyrazolo[3,4-d]pyrimidin-6-yl]phenyl}carbamate], for which the pIC50 is 6.18 on PI3K (PI3Kα, read-out: PI3Kα IC50); 5.52 in the assay on prostate line LNCap (LNCaP); 5.28 with breast line MDA468.

Turning to `CC(C)OC(=O)Nc1ccc(-c2nc(N3CCOCC3)c3cnn(C4CCN(Cc5ccccc5)CC4)c3n2)cc1` [Compound 208], the pIC50 on PI3K (PI3Kα, read-out: PI3Kα IC50) was 5.42; in the assay on prostate line LNCap (LNCaP), 5.24; in the assay on breast line MDA468 it was 4.96.

Take `Nc1ncc(-c2nc(N3CCOCC3)c3cnn(C4CCN(Cc5cccnc5)CC4)c3n2)cn1` [Compound 211]: the pIC50 is 7.64 at PI3K (PI3Kα, read-out: PI3Kα IC50); 6.77 in the assay with prostate line LNCap (LNCaP); 6.10 in the assay on breast line MDA468.

As for `c1ccc(N2CCC(n3ncc4c(N5CCOCC5)nc(-c5ccc6[nH]ccc6c5)nc43)CC2)nc1` [Compound 217, 6-(1H-indol-5-yl)-4-morpholin-4-yl-1-(1-pyridin-2-ylpiperidin-4-yl)-1H-pyrazolo[3,4-d]pyrimidine], the pIC50 was 5.85 at PI3K (PI3Kα, read-out: PI3Kα IC50); 5.92 with prostate line LNCap (LNCaP); 5.72 in the assay on breast line MDA468.

`CNC(=O)Nc1ccc(-c2nc(N3CCOCC3)c3cnn(C4CCN(C(=O)c5cccnc5)CC4)c3n2)cc1` [Compound 219]: the pIC50 on PI3K (PI3Kα, read-out: PI3Kα IC50) is 6.26; in the assay with prostate line LNCap (LNCaP), 6.82; in the assay with breast line MDA468, 6.22.

Take `CNC(=O)Nc1cccc(-c2nc(N3CCOCC3)c3cnn(C4CCN(Cc5ccccc5)CC4)c3n2)c1` [Compound 228, N-{3-[1-(1-benzylpiperidin-4-yl)-4-morpholin-4-yl-1H-pyrazolo[3,4-d]pyrimidin-6-yl]phenyl}-N′-methylurea]: the pIC50 on PI3K (PI3Kα, read-out: PI3Kα IC50) is 5.72; in the assay on prostate line LNCap (LNCaP), 5.24; in the assay on breast line MDA468, 5.17.

Regarding `c1ccc(CN2CCC(n3ncc4c(N5CCOCC5)nc(-c5cnc6ccccc6c5)nc43)CC2)cc1` [Compound 230, 3-[1-(1-benzylpiperidin-4-yl)-4-morpholin-4-yl-1H-pyrazolo[3,4-d]pyrimidin-6-yl]quinoline], the pIC50 at PI3K (PI3Kα, read-out: PI3Kα IC50) was 5.22; in the assay on prostate line LNCap (LNCaP) it was 4.22; with breast line MDA468, 4.66.

Turning to `CC(=O)Nc1ccc(-c2nc(N3CCOCC3)c3cn[nH]c3n2)cc1` [Compound 233, N-[4-(4-morpholin-4-yl-1H-pyrazolo[3,4-d]pyrimidin-6-yl)phenyl]acetamide], the pIC50 on PI3K (PI3Kα, read-out: PI3Kα IC50) was 6.35; with prostate line LNCap (LNCaP) it was 5.43; with breast line MDA468 it was 5.07.

In the case of `CN(C)CC=CC(=O)N1CCC(n2ncc3c(N4CCOCC4)nc(-c4ccc5[nH]ccc5c4)nc32)CC1` [Compound 234, 4-{4-[6-(1H-indol-5-yl)-4-morpholin-4-yl-1H-pyrazolo[3,4-d]pyrimidin-1-yl]piperidin-1-yl}-N,N-dimethyl-4-oxobut-2-en-1-amine], the pIC50 on PI3K (PI3Kα, read-out: PI3Kα IC50) was 6.32; with prostate line LNCap (LNCaP), 6.00; in the assay on breast line MDA468, 5.70.

Turning to `c1cc2cc(-c3nc(N4CCOCC4)c4cnn(C5CCCCO5)c4n3)ccc2[nH]1` (stereo not drawn) [Compound 237, 6-(1H-indol-5-yl)-4-morpholin-4-yl-1-(tetrahydro-2H-pyran-2-yl)-1H-pyrazolo[3,4-d]pyrimidine], the pIC50 on PI3K (PI3Kα, read-out: PI3Kα IC50) is 5.62; in the assay on prostate line LNCap (LNCaP), 5.38; in the assay with breast line MDA468, 6.00.

With `CC(C)N1CCC(n2ncc3c(N4CCOCC4)nc(-c4ccc5[nH]ccc5c4)nc32)CC1` [Compound 238, 6-(1H-indol-5-yl)-1-(1-isopropylpiperidin-4-yl)-4-morpholin-4-yl-1H-pyrazolo[3,4-d]pyrimidine], the pIC50 at PI3K (PI3Kα, read-out: PI3Kα IC50) is 5.43; in the assay on prostate line LNCap (LNCaP) it was 5.60; with breast line MDA468, 5.54.

As for `c1ccc(CCN2CCC(n3ncc4c(N5CCOCC5)nc(-c5ccc6[nH]ccc6c5)nc43)CC2)cc1` [Compound 239, 6-(1H-indol-5-yl)-4-morpholin-4-yl-1-[1-(2-phenylethyl)piperidin-4-yl]-1H-pyrazolo[3,4-d]pyrimidine], the pIC50 was 5.51 at PI3K (PI3Kα, read-out: PI3Kα IC50); 6.11 in the assay with prostate line LNCap (LNCaP); 5.51 in the assay on breast line MDA468.

Take `CC(c1ccccc1)N1CCC(n2ncc3c(N4CCOCC4)nc(-c4ccc5[nH]ccc5c4)nc32)CC1` (stereo not drawn) [Compound 240, 6-(1H-indol-5-yl)-4-morpholin-4-yl-1-[1-(1-phenylethyl)piperidin-4-yl]-1H-pyrazolo[3,4-d]pyrimidine]: the pIC50 on PI3K (PI3Kα, read-out: PI3Kα IC50) is 5.57; in the assay with prostate line LNCap (LNCaP) it was 5.42; in the assay on breast line MDA468, 5.46.

With `COCCN1CCC(n2ncc3c(N4CCOCC4)nc(-c4ccc5[nH]ccc5c4)nc32)CC1` [Compound 241, 6-(1H-indol-5-yl)-1-[1-(2-methoxyethyl)piperidin-4-yl]-4-morpholin-4-yl-1H-pyrazolo[3,4-d]pyrimidine], the pIC50 at PI3K (PI3Kα, read-out: PI3Kα IC50) is 5.30; in the assay with prostate line LNCap (LNCaP), 5.62; with breast line MDA468, 5.38.

Regarding `O=C(Cc1ccccc1)N1CCC(n2ncc3c(N4CCOCC4)nc(-c4ccc5[nH]ccc5c4)nc32)CC1` [Compound 242, 6-(1H-indol-5-yl)-4-morpholin-4-yl-1-[1-(phenylacetyl)piperidin-4-yl]-1H-pyrazolo[3,4-d]pyrimidine], the negative-log IC50 (pIC50) was 6.16 on PI3K (PI3Kα, read-out: PI3Kα IC50); 6.15 in the assay on prostate line LNCap (LNCaP); 5.52 with breast line MDA468.

For `O=C(Oc1ccccc1)N1CCC(n2ncc3c(N4CCOCC4)nc(-c4ccc5[nH]ccc5c4)nc32)CC1` [Compound 243, phenyl 4-[6-(1H-indol-5-yl)-4-morpholin-4-yl-1H-pyrazolo[3,4-d]pyrimidin-1-yl]piperidine-1-carboxylate], the pIC50 against PI3K (PI3Kα IC50, PI3Kα) was 6.27; in the assay on prostate line LNCap, 5.89; in the assay on breast line MDA468, 5.37.

In the case of `NC(=O)CN1CCC(n2ncc3c(N4CCOCC4)nc(-c4ccc5[nH]ccc5c4)nc32)CC1` [Compound 245, 2-{4-[6-(1H-indol-5-yl)-4-morpholin-4-yl-1H-pyrazolo[3,4-d]pyrimidin-1-yl]piperidin-1-yl}acetamide], the negative-log IC50 (pIC50) on PI3K (PI3Kα, read-out: PI3Kα IC50) was 5.58; with prostate line LNCap (LNCaP), 6.10; in the assay with breast line MDA468 it was 5.55.

As for `OCCN1CCC(n2ncc3c(N4CCOCC4)nc(-c4ccc5[nH]ccc5c4)nc32)CC1` [Compound 246, 2-{4-[6-(1H-indol-5-yl)-4-morpholin-4-yl-1H-pyrazolo[3,4-d]pyrimidin-1-yl]piperidin-1-yl}ethanol], the pIC50 on PI3K (PI3Kα, read-out: PI3Kα IC50) was 5.40; in the assay with prostate line LNCap (LNCaP) it was 5.74; in the assay on breast line MDA468, 5.52.

As to `OCCCN1CCC(n2ncc3c(N4CCOCC4)nc(-c4ccc5[nH]ccc5c4)nc32)CC1` [Compound 247, 3-{4-[6-(1H-indol-5-yl)-4-morpholin-4-yl-1H-pyrazolo[3,4-d]pyrimidin-1-yl]piperidin-1-yl}propan-1-ol], the negative-log IC50 (pIC50) is 5.14 at PI3K (PI3Kα, read-out: PI3Kα IC50); 5.60 in the assay on prostate line LNCap (LNCaP); 5.52 in the assay on breast line MDA468.

With `c1cc2cc(-c3nc(N4CCOCC4)c4cn[nH]c4n3)ccc2[nH]1` [Compound 248, 6-(1H-indol-5-yl)-4-morpholin-4-yl-1H-pyrazolo[3,4-d]pyrimidine], the negative logarithm of the IC50 (pIC50) at PI3K (PI3Kα, read-out: PI3Kα IC50) was 6.03; in the assay with prostate line LNCap (LNCaP), 5.46; in the assay with breast line MDA468 it was 5.05.

Take `O=CN1CCC(n2ncc3c(N4CCOCC4)nc(-c4ccc5[nH]ccc5c4)nc32)CC1` [Compound 251, 4-[6-(1H-indol-5-yl)-4-morpholin-4-yl-1H-pyrazolo[3,4-d]pyrimidin-1-yl]piperidine-1-carbaldehyde]: the pIC50 at PI3K (PI3Kα, read-out: PI3Kα IC50) is 5.55; with prostate line LNCap (LNCaP), 6.00; in the assay with breast line MDA468, 5.52.

Turning to `O=C(NCCc1ccccc1)Nc1ccc(-c2nc(N3CCOCC3)c3cnn(C4CCN(Cc5ccccc5)CC4)c3n2)cc1` [Compound 259, 1-{4-[1-(1-benzylpiperidin-4-yl)-4-morpholin-4-yl-1H-pyrazolo[3,4-d]pyrimidin-6-yl]phenyl}-3-(2-phenylethyl)urea], the pIC50 on PI3K (PI3Kα, read-out: PI3Kα IC50) is 5.67; in the assay on prostate line LNCap (LNCaP) it was 6.00; in the assay on breast line MDA468, 4.70.
